Test results taken from patent publication US7018981B2, “Cyclic motilin receptor antagonists” (Chugai Seiyaku Kabushiki Kaisha, priority 2000, dated 2006).
Where a SMILES comes first, the peptide text is derived from it. Bridges are numbered along the chain shown (N, C = ends). [ ]: non-standard residue; d: D form. NMeTyr(3-tBu) = CN[C@@H](Cc1ccc(O)c(C(C)(C)C)c1)C(=O)O; Tyr(3-tBu) = CC(C)(C)c1cc(C[C@H](N)C(=O)O)ccc1O; Phe(4-F) = N[C@@H](Cc1ccc(F)cc1)C(=O)O; NMeLys(Me) = CNCCCC[C@H](NC)C(=O)O; NMeK = CN[C@@H](CCCCN)C(=O)O; GABA = NCCCC(=O)O; βAla = NCCC(=O)O

Assays:
motilin receptors = target: T1, motilin receptors (Oryctolagus cuniculus, UniProt G1T803); assay: Motilin receptor binding test (125I motilin, rabbit duodenum protein solution); conditions: concentration inhibiting 50% of specific binding of 25 pM 125I motilin; rabbit duodenum homogenate, 2 hours at 25° C.
T1 construct: A protein solution was prepared by homogenizing the duodenum isolated from a killed rabbit; from tissue; host or cells: rabbit duodenum, mucosa stripped, homogenate
Method: Motilin receptor binding activities of compounds of the present invention were tested as follows [Vantrappen et al., Regul.
A protein solution was prepared by homogenizing the duodenum isolated from a killed rabbit in 50 mM Tris after stripping the mucosa. […] The difference between the radioactivity of the protein solution incubated alone and the radioactivity of the protein solution incubated with a large excess of motilin (10^−7 M) was recorded as specific binding of motilin to motilin receptors.

[1] = tested on: motilin-induced contraction of a sample of the longitudinal muscle of the duodenum; assay: Contraction inhibition test: motilin-induced contraction of rabbit longitudinal duodenal muscle; assay type: cell-based; conditions: Oryctolagus cuniculus; concentration-dependent contraction induced by motilin; rabbit duodenal specimen in Krebs solution at 28° C.; read-out: Contraction inhibition test pA2 (converted)
Method: The effect of compounds of the present invention on motilin-induced contraction of a sample of the longitudinal muscle of the duodenum extracted from a rabbit was tested as follows.
A duodenal specimen (5×15 mm) extracted from a killed rabbit was suspended in the direction of the longitudinal muscle in an incubator at 28° C. filled with Krebs solution (10 ml organ bath). A mixed gas (95% O2, 5% CO2) was continuously passed through the Krebs solution and the contraction of the duodenal specimen was isotonically recorded (under a load of 1 g) via an isotonic transducer (ME-3407, ME Commercial, Tokyo, Japan). The extent of contraction of the duodenal specimen was expressed as a percentage to the contraction induced by acetylcholine at a concentration of 10^−4 M.
The effect of the compounds synthesized in Examples 1–8 and 10 on the concentration-dependent contraction induced by motilin added into the incubator was determined to calculate pA2 (see “Drug receptors” edited by Takayanagi, published by Nanzando). As a comparative example, the results of the compound of formula (5) are also shown.

T1 sequence (G1T803 1-400): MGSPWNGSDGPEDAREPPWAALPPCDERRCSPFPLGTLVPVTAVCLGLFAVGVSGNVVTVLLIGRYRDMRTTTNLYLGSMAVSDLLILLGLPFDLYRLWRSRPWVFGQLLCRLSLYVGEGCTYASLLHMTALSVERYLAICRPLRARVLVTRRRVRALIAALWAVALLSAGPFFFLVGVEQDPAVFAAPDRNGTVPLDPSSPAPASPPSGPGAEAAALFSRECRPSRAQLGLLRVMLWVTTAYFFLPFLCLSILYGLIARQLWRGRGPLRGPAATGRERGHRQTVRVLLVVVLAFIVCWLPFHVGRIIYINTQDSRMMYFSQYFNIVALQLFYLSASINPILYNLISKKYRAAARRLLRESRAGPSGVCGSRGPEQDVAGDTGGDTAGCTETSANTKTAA

| Structure (SMILES) | IC50 (motilin receptors) [nM] | Kb [1] [nM] |
| --- | --- | --- |
| CN(C(=O)[C@@H](N)Cc1ccc(F)cc1)[C@H]1CCCCNC(=O)CCNC(=O)[C@H](Cc2ccc(O)c(C(C)(C)C)c2)NC1=O [Example 1, (2S-(2S,13S))-2-amino-N-(2-(3-tert-butyl-4-hydroxyphenylmethyl)-1,4,8-triaza-3,7,14-trioxocyclotetradec-13-yl)-3-(4-fluorophenyl)-N-methylpropionamide] (H-[Phe(4-F)][NMeK][Tyr(3-tBu)][βAla]; lactam 2-C) | 1.2 | 1 |
| CN(C(=O)[C@@H](N)Cc1ccc(F)cc1)[C@H]1CCCCNC(=O)CCNC(=O)[C@H](Cc2ccc(O)c(C(C)(C)C)c2)N(C)C1=O [Example 2, (2S-(2S.13S))-2-amino-N-(2-(3-tert-butyl-4-hydroxyphenylmethyl)-1-methyl-1,4,8-triaza-3,7,14-trioxocyclotetradec-13-yl)-3-(4-fluorophenyl)-N-methylpropionamide] (H-[Phe(4-F)][NMeK][NMeTyr(3-tBu)][βAla]; lactam 2-C) | 1.4 | 1.26 |
| CN(C(=O)[C@@H](N)Cc1ccc(F)cc1)[C@H]1CCCCNC(=O)CNC(=O)[C@H](Cc2ccc(O)c(C(C)(C)C)c2)NC1=O [Example 3, (2S-(2S,12S))-2-amino-N-(2-(3-tert-butyl-4-hydroxyphenylmethyl)-1,4,8-triaza-3,7,13-trioxocyclotridec-12-yl)-3-(4-fluorophenyl)-N-methylpropionamide] (H-[Phe(4-F)][NMeK][Tyr(3-tBu)]G; lactam 2-C) | 0.52 | 6.31 |
| CN(C(=O)[C@@H](N)Cc1ccc(F)cc1)[C@H]1CCCCNC(=O)CCCNC(=O)[C@H](Cc2ccc(O)c(C(C)(C)C)c2)NC1=O [Example 6, (2S-(2S,14S))-2-amino-N-(2-(3-tert-butyl-4-hydroxyphenylmethyl)-1,4,9-triaza-3,8,15-trioxocyclopentadec-14-yl)-3-(4-fluorophenyl)-N-methylpropionamide] (H-[Phe(4-F)][NMeK][Tyr(3-tBu)][GABA]; lactam 2-C) | 0.87 | 3.16 |
| CC(=O)N1CCCC[C@H](N(C)C(=O)[C@@H](N)Cc2ccc(F)cc2)C(=O)N[C@@H](Cc2ccc(O)c(C(C)(C)C)c2)C(=O)NCCC1 [Example 8, (2S-(2S.13S))-N-(8-acetyl-2-(3-tert-butyl-4-hydroxyphenylmethyl)-N-methyl-1,4,8-triaza-3,14-dioxocyclotetradec-13-yl)-2-amino-3-(4-fluorophenyl)propionamide] | 0.84 | 6.31 |

The next lines start with results.

| IC50 (motilin receptors) [nM] | Structure (SMILES) | Kb [1] [nM] |
| --- | --- | --- |
| 0.78 | CN1CCC(=O)NCCCC[C@H](N(C)C(=O)[C@@H](N)Cc2ccc(F)cc2)C(=O)N[C@@H](Cc2ccc(O)c(C(C)(C)C)c2)C1=O [Example 4, (2S-(2S,13S))-2-amino-N-(2-(3-tert-butyl-4-hydroxyphenylmethyl)-4-methyl-1,4,8-triaza-3,7,14-trioxocyclotetradec-13-yl)-3-(4-fluorophenyl)-N-methylpropionamide] | 1 |
| 1.4 | CN1CCCC[C@H](N(C)C(=O)[C@@H](N)Cc2ccc(F)cc2)C(=O)N[C@@H](Cc2ccc(O)c(C(C)(C)C)c2)C(=O)NCCC1=O [Example 5, (2S-(2S,13S))-2-amino-N-(2-(3-tert-butyl-4-hydroxyphenylmethyl)-8-methyl-1,4,8-triaza-3,7,14-trioxocyclotetradec-13-yl)-3-(4-fluorophenyl)-N-methylpropionamide] (H-[Phe(4-F)][NMeLys(Me)][Tyr(3-tBu)][βAla]; lactam 2-C) | 0.126 |
| 4.5 | CC(C)(C)c1cc(C[C@@H]2NC(=O)[C@@H](NC(=O)[C@@H](N)Cc3ccc(F)cc3)CCCCNC(=O)CCNC2=O)ccc1O [Example 7, (2S,14S)-13-(2S-2-amino-3-(4-fluorophenyl)propylamino)-2-(3-tert-butyl-4-hydroxyphenylmethyl)-1,4,8-triaza-3,7,14-trioxocyclotetradecane] (H-[Phe(4-F)]K[Tyr(3-tBu)][βAla]; lactam 2-C) | 10 |
| 2.2 | CN(C(=O)[C@@H](N)Cc1ccccc1)[C@H]1CCCCNC(=O)CCNC(=O)[C@H](Cc2ccc(O)c(C(C)(C)C)c2)NC1=O [Example 10, (2S-(2S,13S))-2-amino-N-(2-(3-tert-butyl-4-hydroxyphenylmethyl)-1,4,8-triaza-3,7,14-trioxocyclotetradec-13-yl)-3-phenyl-N-methylpropionamide] (H-F[NMeK][Tyr(3-tBu)][βAla]; lactam 2-C) | 12.6 |
